“And” between values parts separate entries of the source, which are not always exact repeats. Equal values may be shown once.
Experiments:
[1] = Turbidimetric solubility assay
Procedure: A single phosphate buffered saline (PBS) tablet (Sigma Aldrich) was dissolved in 200 mL of distilled water (dH2O) (25 °C) to obtain a PBS solution with 0.01 M phosphate buffer, 0.14 M NaCl and 0.003 M KCl.
Stock solutions of the compounds to be tested were prepared in DMSO at a concentration of 10 mM and filtered through syringe filters. Serial dilution of the stock solutions with DMSO was then carried out in a preparatory (prep) 96-well plate giving concentrations between 0.00 and 10.0 mM (0.00, 0.25, 0.50, 1.0, 2.0, 4.0, 8.0 and 10 mM). The solutions were then further diluted into 96-well assay plates containing DMSO, PBS or HEPES buffer by pipetting 4.00 μL of solution from the prep plate to the Assay plate containing 196 μL of DMSO or buffer, giving final concentrations between 0.00 and 200 μM (0.00, 5.00, 10.0, 20.0, 40.0, 80.0, 160 and 200 μM). The assay plates were incubated at 25.0 or 37.0 °C for two hours before their UV-vis absorbance was read at 620 nm with a SPECTROstar Nano microplate reader spectrophotometer. Blank readings were used to gain corrected readings by subtracting them from obtained absorbances for each compound concentration.

[2] = test system: RhΔKu80:mNeonGreen strain of T. gondii; assay: microbe, parasite or virus in culture; format: cell-based, Toxoplasma gondii; conditions: T. gondii ΔKu80:mNeon in HFFs, 4 days, highest concentration 100 μM; NA = not active at the maximum tested concentration; three biological replicates in triplicate; read-out: EC50
Procedure: Growth inhibition assays were carried out using the RhΔKu80:mNeonGreen strain of T. gondii, which expresses the mNeonGreen fluorescent protein.[56] Parasite growth inhibition was determined by measuring the fluorescence emission of parasite growth in increasing concentrations of compounds of interest.
T. gondii ΔKu80:mNeon tachyzoites were grown in human foreskin fibroblasts (HFFs) with Dulbecco's modified Eagle's medium (DMEM) supplemented with 3% heat inactivated foetal bovine serum (D3) as the culturing medium. Cells and parasites were maintained at 37 °C and 5% carbon dioxide (CO2).
EC50s were calculated as previously described.[56] Briefly, T. gondii ΔKu80:mNeon parasites were counted by haemocytometer and diluted to 25 000 parasites per mL in 40 mL of D3 media, to give an infection of 5000 parasites per well. The media from a black clear bottomed 96 well plate containing HFFs was then aspirated. 200 μL of uninfected D3 media was added to the top and bottom rows of wells (A and H) to serve as blanks. 200 μL of T. gondii containing D3 media was then added to the remaining wells. The parasites were allowed 2 hours to invade host cells, after which test compounds were added.
The media from the infected 96 well plates was then aspirated and 100 μL of D3 media added to each well, excluding column 12. The first 4 wells of column 12 were filled with 300 μL of drug supplemented D3 media, while the next 4 wells were filled with 300 μL of D3 media supplemented with a different drug. The drug supplemented D3 media was then serially diluted 1 : 3 across the plate, stopping at column 2 and disposing of the media, leaving all wells with 100 μL of media. Finally, the plates were closed and incubated at 37 °C with 5% CO2 for 4 days. After 4 days the fluorescence of each well on the plates was read at 594 nm emission using a PHERAstar FS microplate reader. Graphpad Prism 9 software was used to plot dose–response and determine inhibition of parasite growth.

T. gondii parasites = assay: Determination of ROS formation by FACS (CellROX deep red); format: cell-based, Toxoplasma gondii; conditions: 66 μM, 18 hours, compared with untreated parasites
Procedure: Once it had been established that two of the synthesised ferrocenyl benzimidazole derivatives were biologically active, their potential mode of action was explored. Given the presence of the ferrocenyl moiety, and the cyclic voltammetry results, it was of interest to investigate whether the compounds induce ROS, which may provide an explanation for their anti-parasitic activity. Thus, cells heavily infected with parasites were incubated with target compounds for 18 hours, before isolating the parasites and staining them with CellRox deep red reagent. CellRox is an oxidation sensitive dye which is non-fluorescent in its reduced state but fluoresces bright red at 665 nm upon being oxidised by ROS. FACS was then used to quantify CellROX parasite florescence.[56] Parasites were incubated with ferrocene carboxylic acid (FcCOOH), and untreated parasites were used as controls.
6 cm dishes of host cells heavily infected with T. gondii were untreated or treated with 66 μM (second highest concentration used in growth inhibition assays) of test compounds for 18 hours. The dishes were then scratched and syringed, before filtering the solution into 10 mL falcon tubes to remove cell debris. The tubes were spun down for 10 minutes at 1500 rpm. The media was then removed from the tubes, and the pellet resuspended in 200 μL of PBS buffer. For each drug, 100 μL of the resuspended pellet was then placed into 2 FACS tubes, one which would then be stained with CellROX dye, and the other 100 μL of PBS added to act as an unstained control. A 1 : 125 dilution of CellROX stock solution was performed, and 100 μL of this solution added to the FACS tubes needing staining. Stained tubes were incubated at 37 °C for at least 15 min before analysis on a BD Celesta flow cytometer. Data was obtained using FACSDiva software with parasites being gated on forward scatter, side scatter and green fluorescence. FlowJo v10 software was used to plot the geometric mean of CellRox fluorescence from at least 5000 parasites on the Cy7 channel.

T. gondii = assay: Fluorescence microscopy of infected cells; format: cell-based, Toxoplasma gondii; conditions: 50 μM
Procedure: To visualise the impact of the target compounds on the parasites, fluorescence microscopy was performed. Compound 17 was used as a representative for the two active compounds and was incubated with infected cells at a concentration of 50 μM for 24 and 48 hours. Fluorescence microscopy images were obtained at each of the timepoints (Fig. 5).
A 24 well plate of HFF host cells grown on cover slips was infected with 100 μL of parasites per well and incubated at 37 °C for 1 h. The media in the wells was aspirated and replaced with media containing 50 μM of 17 The plate was once again incubated for 24 or 48 h at 37 °C. Once incubation was complete, the cells were washed once with PBS, before fixation with 500 μL of 4% paraformaldehyde (PFA) at room temperature for 20 minutes. Cells were washed and 500 μL of blocking buffer (2% bovine serum albumin (BSA) in mL PBST (PBS, 0.2% Triton x-100 solution) and incubated for 20 min at room temperature. The cover slips were then carefully removed from each well, mounted using Fluoromount with DAPI (Southern Biotech), and placed facing down on a microscope slide. Images were obtained using a Leica DiM8 (Leica Microsystems) microscope and processed and deconvolved using SoftWoRx and FIJI software.

HEK293T cell line = conditions: 25 μM, MTT 48 hours
Procedure: Human prostatic epithelial cells (PNT1A) were cultured in Rosewell Park Memorial Institute (RPMI) media supplemented with 10% heat inactivated FBS. Both cell lines were incubated at 37 °C with 5% CO2. Both cell lines were obtained from ATCC.
The cells were allowed to recover overnight before the addition of compounds.
Stock solutions of the test compounds in DMSO were prepared and serially diluted in DMSO in a 96 well plate. […] 10 μL of the test compounds in media was then pipetted into the plates containing cells in triplicate. The cells were then incubated with the test compounds for 48 hours. After incubation, 10 μL of previously prepared MTT reagent was added to each well followed by incubation of the plates for 4 hours. 100 μL of solubilising agent was then pipetted into each well, and the plates incubated overnight. After overnight incubation the plates were read using a BioTek SYNERGY HTX multimode plate reader at 595 nm. Graphpad Prism 9 software was used to plot dose–response and determine cell viability.

## O=C(NCCn1cnc2cccnc21)[c-]1cccc1.[Fe+2].c1cc[cH-]c1 [Compound 17]
[1]; HEPES (pH 7.0), 25 °C
  Solubility range: 20-40 µM and 7-15 µg/mL
[1]; HEPES (pH 7.0), 37 °C
  Solubility class: poor (solubility <10 μg mL^−1 are considered to have poor solubility)
  Solubility range: 0-5 µM and 0–2 µg/mL
[1]; PBS (pH7.4), 25 °C
  Solubility range: 0-5 µM and 0-2 µg/mL
[1]; PBS (pH7.4), 37 °C
  Solubility range: 5-10 µM and 2-4 µg/mL
[2]
  EC50: 17.5 µM
T. gondii parasites
  ROS formation in treated parasites (CellRox red fluorescence): triggered the formation of ROS
T. gondii; 24 hours, leakage of fluorescent protein
  Parasite plasma membrane integrity (fluorescence microscopy): damaged plasma membranes
T. gondii; 48 hours
  Daughter cell division of parasites that continued to grow (fluorescence microscopy): abnormal daughter cell division
HEK293T cell line
  Cell survival / % cell viability: 70%
